Values quoted from earlier work as cited in patent US20260324642A1, “COMPOSITION, PEST CONTROL PREPARATION, AND PEST CONTROL METHOD” (priority 2023, published 2026).

Conditions: known activity, background art

Row | SMILES | insecticidal activity
1 | COc1ccc(C(=O)O[C@H]2CC[C@@]3(C)[C@@H]4CC[C@H]5[C@]6(O)C[C@H](O)[C@@]7(O)[C@@H](CN8C[C@@H](C)CC[C@H]8[C@@]7(C)O)[C@]6(O)C[C@@]53O[C@]24O)cc1OC [Veratridine] | known to have insecticidal activity
2 | C/C=C(/C)C(=O)O[C@H]1CC[C@@]2(C)[C@@H]3CC[C@H]4[C@]5(O)C[C@H](O)[C@@]6(O)[C@@H](CN7C[C@@H](C)CC[C@H]7[C@@]6(C)O)[C@]5(O)C[C@@]42O[C@]13O [Cevadine] | known to have insecticidal activity
